Patent US9464007B2, “Antifungal wallboards and building materials and methods for the production thereof” (priority 2004, dated 2016)
≈ marks a conversion by molar mass, not a printed value. Where “and” joins values, the source holds several entries; their conditions need not be identical. Equal values may be shown once.

Key:
Assay type in all cases: cell-based
Aureobasidium pullulans [1] = test: Synergy testing of 2-way mixtures, 24 well plates; details: A. pullulans
Procedure: (§1) For synergism testing of the 2-way mixtures 100 ul of each fungicide were filled into the 24 well plates (8 different rates) and 800 ul of 0.3% PDA media containing the spore suspension was added (see above). Different ratios of the 2 fungicide rates were tested at the same time.
(§2) Alternaria tenuissima, Penicillium citrinum, Stachybotrys chartarum, Aspergillus niger and Aureobasidium pullulans were separately cultivated on PDA media to […] sporulation. Spore suspensions were produced for each fungi.
(§3) For the mixtures of different fungicides the synergism was calculated based on the Colby equation, which is described below: […]
(§4) The fungicidal action to be expected, We, for a given combination of two fungicides can be calculated as follows (see COLBY, S. R. “Calculating synergistic and antagonistic response of herbicide combinations”. Weeds 15, pages 20-22; 1967): We=X+[Y×(100−X)/100] wherein:
(§5) If the activity actually observed is greater than the expected value We, there is a synergistic effect.
(§6) All rates below are expressed as mg ai/l (i.e. ppm).

Aspergillus niger [2] = test: Synergy testing of 2-way mixtures, 24 well plates; details: A. niger; for inh % (DFZ alone): rate (DFZ) 0.8 mg ai/l
Procedure: as §1, §2, §3, §4, §5, §6

Penicillium citrinum [3] = test: Synergy testing of 2-way mixtures, 24 well plates; details: P. citrinum, PPZ + DFZ test
Procedure: as §1, §2, §3, §4, §5, §6

Memnionella echinata = test: Fungal growth on agar medium containing fungicide, petri dish, visual assessment; details: after 23 days at 25° C.; for EC50: 552 h, read-out: Concentration required for 50% Activity
Procedure: (§7) A fungal growth medium was made comprising yeast extract (4 g) agar (8 g), magnesium sulphate (0.2 g), sodium nitrate (2.4 g), potassium chloride (0.2 g), potassium dihydrogen orthophosphate (0.6 g), glycerol (8 ml), distilled water (390 ml). Fungicides as set out in Tables 1 to 4 were added at levels of 5000, 100, 10, 1, 0.1 and 0.01 mg fungicide/liter of growth medium to give six different growth medium compositions for each fungicide. These growth media containing the fungicide were each put into petri dishes.
(§8) Cladosporium cladosporoides, Oligoporus placenta, Stachybotrys chartarum and Memnionella echinata were separately propagated on Luria agar to suppress sporulation and mycelial plugs were transferred upside down onto the petri dishes containing the growth medium.
(§9) A visual assessment was made of the surface of the petri dishes. The result recorded was the percentage of the surface that remained free of fungus. This was recorded as percentage activity
(§10) For each fungicide, a graph was drawn of percentage activity against concentration of fungicide in the growth medium. From this graph, the concentrations of fungicide required to achieve 50%, 80% and 95% activity was estimated. These figures are given in the results tables.
2. Memnionella echinata; Results after 23 days at 25° C.

[4] = system: Cladosporium cladosporioides; test: as above; details: for EC50: 624 h, read-out: Concentration required for 50% Activity; for EC50 / Concentration required for 80% Activity: after 26 days at 20° C.
Procedure: as §7, §8, §9, §10
3. Cladosporium cladosporioides; Results after 26 days at 20° C.

Stachybotrys chartarum [5] = test: as above; details: for EC50: 528 h, read-out: Concentration required for 50% Activity; for EC50 / Concentration required for 80% Activity: after 22 days at 25° C.
Procedure: as §7, §8, §9, §10
1. Stachybotrys chartarum; Results after 22 days at 25° C.

Oligoporus placenta = test: as above
Procedure: as §7, §8, §9, §10
4. Oligoporus placenta; Results.

Aureobasidium pullulans [6] = test: Liquid culture assay on 24 well plates, solo ai (EC95/MIC); details: A. pullulans; for EC95: 24° C., 3-6 days; for MIC: Aureobasidium pullulans, rates 0-100 mg ai/l, mean values of n = 5, read-out: MIC Minimal Inhibition concentration
Procedure: as §2
(§11) Test method used: liquid culture assay on 24 well plates.
(§12) For solo (i.e. single) ai testing the formulated fungicide (100 ul) was filled into the 24 well plates (8 different rates: 100-0.05 mg ai/l final volume as described above) and 100 ul distilled water was added. Afterwards 800 ul of 0.3% PDA media was added to the plate. The spore suspension of the specific fungi was added to this media in advance containing approx. 100.000 spores/ml. The 24 well plates were sealed and incubated at 24° C.
(§13) Dependent on the growth properties of each organisms, the evaluation was done after 3 to 6 days, when the surface of the check well was covered with mycelium. The evaluation was performed by assessing the growth of the fungi related to the check growth. The results are expressed as % activity relative to the check (values of 0-100% growth). Afterwards the results were converted in % growth inhibition. EC95 values and also MIC (minimal inhibition concentration) values were derived for each compound.
(§14) For each solo compound a graph was drawn of percentage inhibition against the concentration of the fungicide. […] Also the concentration that gave the minimum inhibition concentration was derived as MIC value

Aspergillus niger [7] = test: as above; details: A. niger; for EC95: 24° C., 3-6 days; for MIC: Aspergillus niger, rates 0-100 mg ai/l, mean values of n = 5, read-out: MIC Minimal Inhibition concentration
Procedure: as §2, §11, §12, §13, §14

Alternaria tenuissima = test: as above; details: A. tenuissima; for EC95: 24° C., 3-6 days; for MIC: Alternaria tenuissima, rates 0-100 mg ai/l, mean values of n = 5, read-out: MIC Minimal Inhibition concentration
Procedure: as §2, §11, §12, §13, §14

Penicillium citrinum [8] = test: as above; details: P. citrinum; for EC95: 24° C., 3-6 days; for MIC: Penicillium citrinum, rates 0-100 mg ai/l, mean values of n = 5, read-out: MIC Minimal Inhibition concentration
Procedure: as §2, §11, §12, §13, §14

Stachybotrys chartarum [9] = test: as above; details: S. chartarum; for EC95: 24° C., 3-6 days; for MIC: Stachybotrys chartarum, rates 0-100 mg ai/l, mean values of n = 5, read-out: MIC Minimal Inhibition concentration
Procedure: as §2, §11, §12, §13, §14

SMILES | EC50 (Memnionella echinata) [mg/L] | Concentration required for 80% Activity (Memnionella echinata) [mg/L] | Concentration required for 95% Activity [4] [mg/L] | EC50 [4] [mg/L] | Concentration required for 80% Activity [4] [mg/L] | Concentration required for 95% Activity (Stachybotrys chartarum [5]) [mg/L] | EC50 (Stachybotrys chartarum [5]) [mg/L] | Concentration required for 80% Activity (Stachybotrys chartarum [5]) [mg/L] | Concentration required for 95% Activity (Oligoporus placenta) [mg/L] | EC95 (Aureobasidium pullulans [6]) [mg ai/l] | MIC (Aureobasidium pullulans [6]) [mg/L] | EC95 (Aspergillus niger [7]) [mg ai/l] | MIC (Aspergillus niger [7]) [mg/L] | EC95 (Alternaria tenuissima) [mg ai/l] | MIC (Alternaria tenuissima) [mg/L] | EC95 (Penicillium citrinum [8]) [mg ai/l] | MIC (Penicillium citrinum [8]) [mg/L] | EC95 (Stachybotrys chartarum [9]) [mg ai/l] | MIC (Stachybotrys chartarum [9]) [mg/L] | further results
CC1COC(Cn2cncn2)(c2ccc(Oc3ccc(Cl)cc3)cc2Cl)O1 (stereo not shown) [Difenoconazole] | 5.4 (≈ 13.3 µM) | 43 | 0.79 | 0.04 (≈ 0.0985 µM) | 0.28 | 23 | 0.68 (≈ 1.67 µM) | 3.5 | <0.1 | – | – | – | – | – | – | – | – | – | – | inh % (DFZ alone) (Aureobasidium pullulans [1]; rate (DFZ) 0.05 mg ai/l, PPZ + DFZ test): 10%; inh % (DFZ alone) (Aureobasidium pullulans [1]; rate (DFZ) 0.2 mg ai/l, DFZ + FDL test): 70%; inh % (DFZ alone) (Aureobasidium pullulans [1]; rate (DFZ) 0.2 mg ai/l, DFZ + TBZ test, listed as DFZ): 70% and 90%; inh % (DFZ alone) (Aureobasidium pullulans [1]; rate (DFZ) 0.2 mg ai/l, PPZ + DFZ test): 70%; inh % (DFZ alone) (Aureobasidium pullulans [1]; rate (DFZ) 0.8 mg ai/l, DFZ + CDL test): 90%; inh % (DFZ alone) (Aureobasidium pullulans [1]; rate (DFZ) 0.8 mg ai/l, DFZ + TBZ test): 90%; inh % (DFZ alone) (Aureobasidium pullulans [1]; rate (DFZ) 1.6 mg ai/l, DFZ + CDL test): 90%; inh % (DFZ alone) (Aureobasidium pullulans [1]; rate (DFZ) 1.6 mg ai/l, DFZ + TBZ test): 90%; inh % (DFZ alone) (Aureobasidium pullulans [1]; rate (DFZ) 3.1 mg ai/l, DFZ + CDL test): 70%; inh % (DFZ alone) (Aureobasidium pullulans [1]; rate (DFZ) 3.1 mg ai/l, DFZ + FDL test): 70%; inh % (DFZ alone) (Aureobasidium pullulans [1]; rate (DFZ) 3.1 mg ai/l, DFZ + TBZ test): 70%; inh % (DFZ alone) (Aureobasidium pullulans [1]; rate (DFZ) 3.1 mg ai/l, PPZ + DFZ test): 50%; inh % (DFZ alone) (Aspergillus niger [2]; DFZ + TBZ test): 10%; inh % (DFZ alone) (Aspergillus niger [2]; PPZ + DFZ test): 30%; inh % (DFZ alone) (Penicillium citrinum [3]; rate (DFZ) 0.05 mg ai/l): 0%; inh % (DFZ alone) (Penicillium citrinum [3]; rate (DFZ) 0.2 mg ai/l): 10%; inh % (DFZ alone) (Penicillium citrinum [3]; rate (DFZ) 0.8 mg ai/l): 30%
Cc1cc(C2CC2)nc(Nc2ccccc2)n1 [Cyprodinil] | – | – | – | – | – | – | – | – | – | >100 | > 100 | 7.4 | 12.5 (≈ 55.5 µM) | >100 | > 100 | >100 | > 100 | 46 | 50 (≈ 222 µM) | inh % (CDL alone) (Aureobasidium pullulans [1]; rate (CDL) 0.8 mg ai/l): 0%; inh % (CDL alone) (Aureobasidium pullulans [1]; rate (CDL) 1.6 mg ai/l): 10%; inh % (CDL alone) (Aureobasidium pullulans [1]; rate (CDL) 3.1 mg ai/l): 10%; inh % (CDL alone) (Aureobasidium pullulans [1]; rate (CDL) 12.5 mg ai/l): 30%; inh % (CDL alone) (Aureobasidium pullulans [1]; rate (CDL) 50 mg ai/l): 30%; inh % (CDL alone) (Aureobasidium pullulans [1]; rate (CDL) 100 mg ai/l): 30%
CCCC1COC(Cn2cncn2)(c2ccc(Cl)cc2Cl)O1 (stereo not shown) [Propiconazole] | 88 (≈ 257 µM) | >100 | 4.5 | 0.19 (≈ 0.555 µM) | 1.7 | 360 | 15 (≈ 43.8 µM) | 49 | 0.4 | – | – | – | – | – | – | – | – | – | – | inh % (PPZ alone) (Penicillium citrinum [3]; rate (PPZ) 0.8 mg ai/l): 70%
c1ccc2[nH]c(-c3cscn3)nc2c1 [Thiabendazole] | 28 (≈ 139 µM) | 65 | 8 | 0.78 (≈ 3.88 µM) | 3.5 | 91 | 17 (≈ 84.5 µM) | 49 | >5000 | 15 | 50 (≈ 248 µM) | 3.1 | 3.1 (≈ 15.4 µM) | >100 | > 100 | 0.72 | 0.8 (≈ 3.98 µM) | 46 | 50 (≈ 248 µM) | inh % (TBZ alone) (Aureobasidium pullulans [1]; rate (TBZ) 12.5 mg ai/l): 70%; inh % (TBZ alone) (Aspergillus niger [2]; rate (TBZ) 1.6 mg ai/l): 10%
